From patent publication US20240174634A1, “Aldehyde Dehydrogenase Inhibitors and Their Therapeutic Use” (priority 2020, published 2024) come the findings set out here.

In this assay the target is T1, ALDH1A3 (Homo sapiens, UniProt P47895).
T1 sequence (P47895 1-512): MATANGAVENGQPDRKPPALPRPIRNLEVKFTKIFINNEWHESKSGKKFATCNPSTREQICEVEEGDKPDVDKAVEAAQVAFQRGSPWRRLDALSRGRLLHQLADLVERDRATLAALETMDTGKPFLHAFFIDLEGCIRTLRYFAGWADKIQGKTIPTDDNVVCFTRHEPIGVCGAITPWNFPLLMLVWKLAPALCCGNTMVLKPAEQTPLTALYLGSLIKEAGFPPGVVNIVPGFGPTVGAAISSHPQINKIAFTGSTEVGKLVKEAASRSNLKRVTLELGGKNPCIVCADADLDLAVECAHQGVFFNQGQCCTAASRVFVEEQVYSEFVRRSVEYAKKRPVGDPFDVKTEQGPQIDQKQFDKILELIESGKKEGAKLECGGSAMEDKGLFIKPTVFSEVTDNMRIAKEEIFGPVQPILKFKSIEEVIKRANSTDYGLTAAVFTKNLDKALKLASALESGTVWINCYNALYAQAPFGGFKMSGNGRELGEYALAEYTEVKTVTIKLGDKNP
The assay is described as follows: Primary biochemical assay, NAD(P)H-Glo Detection System. The conditions noted are these: 30 min pre-incubation, propionaldehyde and NAD at Km. The arrangement: His-tag; made in house; host or cells: E. coli Rosetta (DE3). The procedure, abridged: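 Recombinant full-length His-tagged human enzymes expressed in E. coli were pre-incubated 30 min at room temperature with compound (10-point, 3-fold series; top 20 μM for ALDH1A3, 250 μM for ALDH1A1/1A2). Propionaldehyde and NAD were then added at Km; NADH was read by NAD(P)H-Glo luminescence. Buffer: Tris (pH 7.6 for 1A1/1A2, 9.0 for 1A3), 1 mM TCEP, 0.01% Tween-20.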
Compound `CN(CCOc1ccc2c(c1)CCC(=O)N2)C(CO)c1cccc(F)c1` (stereo not drawn) [ALDHI-3003, 6-[2-[[1-(3-fluorophenyl)-2-hydroxy-ethyl]-methyl-amino]ethoxy]-3,4-dihydro-1H-quinolin-2-one] came in with an IC50 of 0.1 to 1 µM.
As for `CN(CCOc1ccc2c(c1)CCC(=O)N2)Cc1cccc(F)c1` [ALDHI-3001, 6-[2-[(3-fluorophenyl)methyl-methyl-amino]ethoxy]-3,4-dihydro-1H-quinolin-2-one], the IC50 was in the range of 0.1 to 1 µM.
With `O=C1CCc2cc(OCCN3CCOCC3c3cccc(F)c3)ccc2N1` (stereo not drawn) [ALDHI-2031, 6-[2-[3-(3-fluorophenyl)morpholin-4-yl]ethoxy]-3,4-dihydro-1H-quinolin-2-one], the IC50 was < 0.1 µM.
On to `O=C1CCc2cc(NC(=O)c3scnc3-c3cccc(F)c3)ccc2N1` [ALDHI-1003, 4-(3-fluorophenyl)-N-(2-oxo-3,4-dihydro-1H-quinolin-6-yl)thiazole-5-carboxamide], for which the IC50 was < 0.1 µM.
On to `CN(CCOc1ccc2c(c1)CCC(=O)N2)C(=O)c1cccc(F)c1` [ALDHI-3008, 3-fluoro-N-methyl-N-[2-[(2-oxo-3,4-dihydro-1H-quinolin-6-yl)oxy]ethyl]benzamide], for which the IC50 is 0.1 to 1 µM.
Consider `O=C1CCc2cc(OCCN3CCCC3c3ccccc3F)ccc2N1` (stereo not drawn) [ALDHI-2002, 6-[2-[2-(2-fluorophenyl)pyrrolidin-1-yl]ethoxy]-3,4-dihydro-1H-quinolin-2-one], for which the 50% inhibitory concentration (IC50) was < 0.1 µM.
Under `Cn1cc(C2CCCN2CCOc2ccc3c(c2)SCC(=O)N3)cn1` (stereo not drawn) [ALDHI-2026, 7-[2-[2-(1-methylpyrazol-4-yl)pyrrolidin-1-yl]ethoxy]-4H-1,4-benzothiazin-3-one] stands 0.1 to 1 µM; under `O=C1CCc2cc(NC(=O)c3sc(N4CCNCC4)nc3-c3cccc(F)c3)ccc2N1` [ALDHI-1005, 4-(3-fluorophenyl)-N-(2-oxo-3,4-dihydro-1H-quinolin-6-yl)-2-piperazin-1-yl-thiazole-5-carboxamide], < 0.1 µM.
Take `O=C1CCc2cc(NC(=O)c3ncsc3-c3cccnc3)ccc2N1` [ALDHI-1010, N-(2-oxo-3,4-dihydro-1H-quinolin-6-yl)-5-(3-pyridyl)thiazole-4-carboxamide]: the half-maximal inhibitory concentration (IC50) was 1 to 10 µM.
Take `O=C1CCc2cc(NC(=O)c3scnc3-c3ccc(F)cc3)ccc2N1` [ALDHI-1017, 4-(4-fluorophenyl)-N-(2-oxo-1,2,3,4-tetrahydroquinolin-6-yl)thiazole-5-carboxamide]: the concentration for half-maximal inhibition (IC50) was < 0.1 µM.
`CC1CN(CCOc2ccc3c(c2)CCC(=O)N3)C(c2ccccc2)CO1` (mixture of isomers) [ALDHI-2042, 6-[2-(2-methyl-5-phenyl-morpholin-4-yl)ethoxy]-3,4-dihydro-1H-quinolin-2-one] gave a 50% inhibitory concentration (IC50) of 0.1 to 1 µM.
Then `O=C1CCc2cc(NC(=O)c3sccc3-c3cccc(F)c3)ccc2N1` [ALDHI-1022, 3-(3-fluorophenyl)-N-(2-oxo-3,4-dihydro-1H-quinolin-6-yl)thiophene-2-carboxamide], with 0.1 to 1 µM; and `O=C1CCc2cc(NC(=O)c3sc(N4CC(O)C4)nc3-c3cccc(F)c3)ccc2N1` [ALDHI-1004, 4-(3-fluorophenyl)-2-(3-hydroxyazetidin-1-yl)-N-(2-oxo-3,4-dihydro-1H-quinolin-6-yl)thiazole-5-carboxamide], with < 0.1 µM; and `C[C@@H](c1ccccc1)N(CCO)CCOc1ccc2c(c1)CCC(=O)N2` [ALDHI-3007, 6-[2-[2-hydroxyethyl-[(1S)-1-phenylethyl]amino]ethoxy]-3,4-dihydro-1H-quinolin-2-one], with 0.1 to 1 µM.
As for `O=C1CSc2cc(OCCN3CCCC3c3ccncc3)ccc2N1` (stereo not drawn) [ALDHI-2029, 7-[2-[2-(4-pyridyl)pyrrolidin-1-yl]ethoxy]-4H-1,4-benzothiazin-3-one], the IC50 was 0.1 to 1 µM.
For the compound `CC1Oc2cc(OCCN3CCCC3c3cccc(F)c3)ccc2NC1=O` (stereo not drawn) [ALDHI-2044, 7-[2-[2-(3-fluorophenyl)pyrrolidin-1-yl]ethoxy]-2-methyl-4H-1,4-benzoxazin-3-one], the half-inhibitory concentration (IC50) was < 0.1 µM.
Then `O=C1CSc2cc(OCCN3CCCC3c3ccccn3)ccc2N1` (stereo not drawn) [ALDHI-2027, 7-[2-[2-(2-pyridyl)pyrrolidin-1-yl]ethoxy]-4H-1,4-benzothiazin-3-one], with 0.1 to 1 µM; and `Cc1noc(-c2ccccc2C(=O)Nc2ccc3c(c2)CCC(=O)N3)n1` [ALDHI-1008, 2-(3-methyl-1,2,4-oxadiazol-5-yl)-N-(2-oxo-1,2,3,4-tetrahydroquinolin-6-yl)benzamide], with 0.1 to 1 µM.
Compound `O=C1CCc2cc(NC(=O)c3ncsc3-c3cccc(F)c3)ccc2N1` [ALDHI-1014, 5-(3-fluorophenyl)-N-(2-oxo-3,4-dihydro-1H-quinolin-6-yl)thiazole-4-carboxamide] returned a concentration for half-maximal inhibition (IC50) of 0.1 to 1 µM.
Then `CN(C)c1nc(-c2cccc(F)c2)c(C(=O)Nc2ccc3c(c2)CCC(=O)N3)s1` [ALDHI-1002, 2-(dimethylamino)-4-(3-fluorophenyl)-N-(2-oxo-3,4-dihydro-1H-quinolin-6-yl)thiazole-5-carboxamide], with < 0.1 µM.
Turning to `O=C1CCCc2cc(OCCN3CCCC3c3cccc(F)c3)ccc2N1` (stereo not drawn) [ALDHI-2020, 7-[2-[2-(3-fluorophenyl)pyrrolidin-1-yl]ethoxy]-1,3,4,5-tetrahydro-1-benzazepin-2-one], the IC50 was < 0.1 µM.
Regarding `O=C1CCc2cc(OCCn3nccc3-c3cccc(F)c3)ccc2N1` [ALDHI-2023, 6-[2-[5-(3-fluorophenyl)pyrazol-1-yl]ethoxy]-3,4-dihydro-1H-quinolin-2-one], the IC50 was < 0.1 µM.
On to `CN(CCOc1ccc2c(c1)CCC(=O)N2)C(=O)c1cccnc1` [ALDHI-3013, N-methyl-N-[2-[(2-oxo-3,4-dihydro-1H-quinolin-6-yl)oxy]ethyl]pyridine-3-carboxamide], for which the IC50 lay within 0.1 to 1 µM.
Under `CC1(c2cccc(F)c2)CCCN1CCOc1ccc2c(c1)CCC(=O)N2` (stereo not drawn) [ALDHI-2037, 6-[2-[2-(3-fluorophenyl)-2-methyl-pyrrolidin-1-yl]ethoxy]-3,4-dihydro-1H-quinolin-2-one] stands < 0.1 µM; under `O=C1CCc2cc(NC(=O)c3ccccc3-c3cccc(F)c3)ccc2N1` [ALDHI-1007, 3′-fluoro-N-(2-oxo-1,2,3,4-tetrahydroquinolin-6-yl)-[1,1′-biphenyl]-2-carboxamide], 1 to 10 µM; under `O=C1CCc2cc(OCCN3CCCC3c3cc(F)cc(F)c3)ccc2N1` (stereo not drawn) [ALDHI-2032, 6-[2-[2-(3,5-difluorophenyl)pyrrolidin-1-yl]ethoxy]-3,4-dihydro-1H-quinolin-2-one], < 0.1 µM.
For `O=C1COc2cc(NC(=O)c3scnc3-c3cccc(F)c3)ccc2N1` [ALDHI-1016, 4-(3-fluorophenyl)-N-(3-oxo-4H-1,4-benzoxazin-7-yl)thiazole-5-carboxamide], the IC50 lay in the range of 0.1 to 1 µM.
Then `O=C1CCc2cc(OCCN3CCCC3c3ccc(F)c(F)c3)ccc2N1` (stereo not drawn) [ALDHI-2039, 6-[2-[2-(3,4-difluorophenyl)pyrrolidin-1-yl]ethoxy]-3,4-dihydro-1H-quinolin-2-one], with < 0.1 µM; and `O=C1CCc2cc(OCCN3CC(O)CC3c3cccc(F)c3)ccc2N1` (mixture of isomers) [ALDHI-2035, 6-[2-[2-(3-fluorophenyl)-4-hydroxy-pyrrolidin-1-yl]ethoxy]-3,4-dihydro-1H-quinolin-2-one], with < 0.1 µM; and `O=C1CCc2cc(NC(=O)c3scnc3-c3ccccc3Cl)ccc2N1` [ALDHI-1012, 4-(2-chlorophenyl)-N-(2-oxo-3,4-dihydro-1H-quinolin-6-yl)thiazole-5-carboxamide], with 1 to 10 µM.
For `O=C1CCc2cc(NC(=O)c3c[nH]nc3-c3cccc(F)c3)ccc2N1` [ALDHI-1006, 3-(3-fluorophenyl)-N-(2-oxo-1,2,3,4-tetrahydroquinolin-6-yl)-1H-pyrazole-4-carboxamide], the IC50 was 0.1 to 1 µM.
Consider `O=C1CCc2cc(OCCN(CCO)Cc3cccnc3)ccc2N1` [ALDHI-3005, 6-[2-[2-hydroxyethyl(3-pyridylmethyl)amino]ethoxy]-3,4-dihydro-1H-quinolin-2-one], for which the half-inhibitory concentration (IC50) is < 0.1 µM.
Then `CCn1cc(C2CCCN2CCOc2ccc3c(c2)CCC(=O)N3)cn1` (stereo not drawn) [ALDHI-2016, 6-[2-[2-(1-ethylpyrazol-4-yl)pyrrolidin-1-yl]ethoxy]-3,4-dihydro-1H-quinolin-2-one], with 0.1 to 1 µM.
Consider `O=C1CCc2cc(OCCN3CCC[C@H]3c3cccc(F)c3)ccc2N1` [ALDHI-2018, 6-[2-[(2S)-2-(3-fluorophenyl)pyrrolidin-1-yl]ethoxy]-3,4-dihydro-1H-quinolin-2-one], for which the IC50 is < 0.1 µM.
For `CC1Cc2cc(OCCN3CCCC3c3cccc(F)c3)ccc2NC1=O` (stereo not drawn) [ALDHI-2048, 6-[2-[2-(3-fluorophenyl)pyrrolidin-1-yl]ethoxy]-3-methyl-3,4-dihydro-1H-quinolin-2-one], the IC50 was < 0.1 µM.
On to `Cc1cccc(-c2ncsc2C(=O)Nc2ccc3c(c2)CCC(=O)N3)c1` [ALDHI-1013, 4-(m-tolyl)-N-(2-oxo-3,4-dihydro-1H-quinolin-6-yl)thiazole-5-carboxamide], for which the IC50 was in the range of 1 to 10 µM.

A word on the IC50: it is the point on the concentration scale where inhibition reaches its midpoint. A higher IC50 goes with a need for much substance.
